{"source": "patent US20170260519A1", "about": "“METHOD OF CULTIVATING MICROORGANISMS HAVING NITRILE HYDRATASE ACTIVITY” (priority 2014, published 2017)", "key": {"[1]": {"tested_on": "R. rhodochrous “CIBA” (NCIMB 41164)", "experiment": "Relative nitrile hydratase activity after cultivation of R. rhodochrous \"CIBA\" with different carbon sources", "assay_type": "cell-based, Rhodococcus rhodochrous", "settings": "10 g/l, 64 h", "experimental": "In context with the present invention, activity of an nitrile hydratase in the sense of the present invention can be determined as follows: First reacting 100 μl of a cell suspension, cell lysate, dissolved enzyme powder or any other preparation containing the supposed nitrile hydratase with 875 μl of an 50 mM potassium phosphate buffer and 25 μl of acrylonitrile at 25° C. on an eppendorf tube shaker at 1,000 rpm for 10 minutes. After 10 minutes of reaction time, samples are drawn and immediately quenched by adding the same volume of 1.4% hydrochloric acid. After mixing of the sample, cells are removed by centrifugation for 1 minute at 10,000 rpm and the amount of acrylamide formed is determined by analyzing the clear supernatant by HPLC. The concentration of acrylamide shall be between 0.25 and 1.25 mmol/l—if necessary, the sample has to be diluted accordingly and the conversion has to be repeated. The enzyme activity is deduced from the concentration of acrylamide by dividing the acrylamide concentration derived from HPLC analysis by the reaction time, which has been 10 minutes and by multiplying this value with the dilution factor between HPLC sample and original sample. […]) and/or to the nucleotide sequence of SEQ ID NO: 3 (beta-subunit of nitrile hydratase of R. rhodochrous: […]), provided that the polypeptide encoded by said polynucleotide is capable of catalyzing hydration of acrylonitrile to acrylamide (i.e. has nitrile hydratase activity) as described and exemplified herein. […] VIV) and/or to the amino acid sequence of SEQ ID NO: 4 (beta-subunit of nitrile hydratase of R. rhodochrous: […]), provided that said polypeptide is capable of catalyzing hydration of acrylonitrile to acrylamide as described and exemplified herein.\nDifferent sugar/organic acid ratios were evaluated for different strains of Rhodococcus (R. rhodochrous “CIBA” (NCIMB 41164) and R. rhodochrous “J1” (FERM BP-1478)), in a microfermentation system.\nThe basic cultivation medium contained yeast extract (Biospringer) (1.25 g/l), KH2PO4 (10 g/l), K2HPO4 (10 g/l), (NH4)2SO4 (1 g/l), MgSO4*7H2O (0.375 g/l), CaCl2*2H2O (25 mg/l), Trace element solution (2.5 g/l) (see below), Co(NO3)2 (31.2 mg/l), anti-foam P2000 (BASF) (62.5 mg/l), urea (7 g/l), and ammonium glutamate (2.5 g/l) in H2O.\nTrace Element Solution: Citric acid mono hydrate (40 g/l), ZnSO4*7H2O (11 g/l), (NH4)2Fe(SO4)2*6H2O (8.5 g/l), MnSO4*H2O (3 g/l), and CuSO4*5H2O (0.8 g/l) in H2O.\n(§1) The medium was then supplemented with 10 g/l of carbon source (saccharide, organic acid or mixture of both as indicated in the Tables below). pH was adjusted to 6.6 using H3PO4 or NaOH. The medium was inoculated directly from cryo stocks to OD 0.05 (measured at 600 nm). Cultivation was carried out at 37° C. for 64 h at 1,100 rpm in a BioLector micro fermentation system (M2P Labs, Baesweiler, Germany) using 48-well flower plates with a working volume of 1.5 ml. After cultivation, samples were drawn, quenched with hydrochloric acid and nitrile hydratase activity was determined as described in Example 2.\nNitrile hydratase activities achieved with the saccharide as sole carbon source were set to 100%."}, "[2]": {"tested_on": "R. rhodochrous “J1” (FERM BP-1478)", "experiment": "Relative nitrile hydratase activity after cultivation of R. rhodochrous \"J1\" with different carbon sources", "assay_type": "cell-based, Rhodococcus rhodochrous", "settings": "10 g/l, 64 h", "experimental": "In context with the present invention, activity of an nitrile hydratase in the sense of the present invention can be determined as follows: First reacting 100 μl of a cell suspension, cell lysate, dissolved enzyme powder or any other preparation containing the supposed nitrile hydratase with 875 μl of an 50 mM potassium phosphate buffer and 25 μl of acrylonitrile at 25° C. on an eppendorf tube shaker at 1,000 rpm for 10 minutes. After 10 minutes of reaction time, samples are drawn and immediately quenched by adding the same volume of 1.4% hydrochloric acid. After mixing of the sample, cells are removed by centrifugation for 1 minute at 10,000 rpm and the amount of acrylamide formed is determined by analyzing the clear supernatant by HPLC. The concentration of acrylamide shall be between 0.25 and 1.25 mmol/l—if necessary, the sample has to be diluted accordingly and the conversion has to be repeated. The enzyme activity is deduced from the concentration of acrylamide by dividing the acrylamide concentration derived from HPLC analysis by the reaction time, which has been 10 minutes and by multiplying this value with the dilution factor between HPLC sample and original sample. […]\nDifferent sugar/organic acid ratios were evaluated for different strains of Rhodococcus (R. rhodochrous “CIBA” (NCIMB 41164) and R. rhodochrous “J1” (FERM BP-1478)), in a microfermentation system. […]\nas §1, with “Cultivation was carried out at 37° C. for 64 h at 1,100 rpm in a BioLector micro fermentation system (M2P Labs, Baesweiler, Germany) using 48-well flower plates with a working volume of 1.5 ml.” left out, “2. […]” for “2.”"}, "[3]": {"settings": "Only saccharide as carbon source, set to 100%"}, "[4]": {"settings": "Only acid as carbon source, 37° C., fructose as sole carbon source = 100%"}, "[5]": {"settings": "Only acid as carbon source, 37° C., glucose as sole carbon source = 100%"}, "[6]": {"settings": "Only acid as carbon source, 37° C., mannose as sole carbon source = 100%"}, "[7]": {"settings": "Only acid as carbon source, 37° C., ribose as sole carbon source = 100%"}}}
{"smiles": "O=C(CO)[C@@H](O)[C@H](O)[C@H](O)CO", "note": "[Fructose, fructose]", "values": [{"measurement": "relative nitrile hydratase activity", "setting": "[1]; [3]", "value": 100, "unit": "%"}, {"measurement": "relative nitrile hydratase activity", "setting": "[2]; [3]", "value": 100, "unit": "%"}]}
{"smiles": "O=C(O)CCC(=O)O", "note": "[Succinic, succinic acid]", "values": [{"measurement": "relative nitrile hydratase activity", "setting": "[1]; [4]", "value": 30, "unit": "%"}, {"measurement": "relative nitrile hydratase activity", "setting": "[1]; [5]", "value": 150, "unit": "%"}, {"measurement": "relative nitrile hydratase activity", "setting": "[1]; [6]", "value": 1204, "unit": "%"}, {"measurement": "relative nitrile hydratase activity", "setting": "[1]; [7]", "value": 1291, "unit": "%"}]}
{"smiles": "O=C(O)CC(O)C(=O)O", "note": "(stereo not drawn) [Malic, malic acid]", "values": [{"measurement": "relative nitrile hydratase activity", "setting": "[1]; [4]", "value": 39, "unit": "%"}, {"measurement": "relative nitrile hydratase activity", "setting": "[1]; [5]", "value": 197, "unit": "%"}, {"measurement": "relative nitrile hydratase activity", "setting": "[1]; [6]", "value": 1579, "unit": "%"}, {"measurement": "relative nitrile hydratase activity", "setting": "[1]; [7]", "value": 1693, "unit": "%"}]}
{"smiles": "CC(O)C(=O)O", "note": "(stereo not drawn) [Lactic, lactic acid]", "values": [{"measurement": "relative nitrile hydratase activity", "setting": "[2]; [4]", "value": 73, "unit": "%"}, {"measurement": "relative nitrile hydratase activity", "setting": "[2]; [5]", "value": 1963, "unit": "%"}]}
{"smiles": "O=C(O)C(O)C(O)C(=O)O", "note": "(stereo not drawn) [Tartaric, tartaric acid]", "values": [{"measurement": "relative nitrile hydratase activity", "setting": "[1]; [4]", "value": 34, "unit": "%"}, {"measurement": "relative nitrile hydratase activity", "setting": "[1]; [5]", "value": 173, "unit": "%"}, {"measurement": "relative nitrile hydratase activity", "setting": "[1]; [6]", "value": 1388, "unit": "%"}, {"measurement": "relative nitrile hydratase activity", "setting": "[1]; [7]", "value": 1487, "unit": "%"}]}
{"smiles": "O=C[C@H](O)[C@H](O)[C@H](O)CO", "note": "[Ribose, ribose]", "values": [{"measurement": "relative nitrile hydratase activity", "setting": "[1]; [3]", "value": 100, "unit": "%"}]}
{"smiles": "O=C(O)CC(O)(CC(=O)O)C(=O)O", "note": "[Citric, citric acid]", "values": [{"measurement": "relative nitrile hydratase activity", "setting": "[1]; [4]", "value": 32, "unit": "%"}, {"measurement": "relative nitrile hydratase activity", "setting": "[1]; [5]", "value": 164, "unit": "%"}, {"measurement": "relative nitrile hydratase activity", "setting": "[1]; [6]", "value": 1315, "unit": "%"}, {"measurement": "relative nitrile hydratase activity", "setting": "[1]; [7]", "value": 1409, "unit": "%"}]}
